# According to patent US11840517B2, “Lappaconitine derivative with analgesic activity, and preparation and application thereof” (priority 2021, dated 2023):
# System: Kunming mice
# Assay: Analgesic activity by acetic acid-induced writhing method
# Assay type: in vivo
# Conditions: Mus musculus, sc, subcutaneous, 15 min before i.p. 0.7% acetic acid, writhing inhibition vs blank group, read-out: Analgesia rate ± SEM (%); for inhibition in vivo at 10 mg/kg: Dosing concentration 10 mg/kg
# Experimental: The experimental animals were Kunming mice (male:female=1:1), weighed 22±2 g, which were provided by Chengdu dossy experimental animals Co., ltd., China. The mice were kept in the animal room of the School of Life Science and Engineering, Southwest Jiaotong University, where the animal room was set at a temperature of 23±2° C., a humidity of 55±5% and a photoperiod of 16:8 h (L:D). Before the experiment, the mice were freely fed for 2-3 days with water and feed to adapt to the new environment. Then, the mice were treated by water fasting for 12 h. 10 animals were allocated to each group to ensure that there are at least 6 sets of valid data in each group. The animal experiments were carried out in strict accordance with the national regulations on the management of experimental animals.
# The compounds prepared in the examples provided herein and the positive control lappaconitine were all dissolved with 0.1 mol/L HCl according to the amount of the substance ratio of 1:1, and then diluted with physiological saline to a concentration to be determined. The samples to be tested were the compounds prepared the examples provided herein; the positive control was lappaconitine; and the blank control was physiological saline containing 0.1 mol/L HCl.
# The animals in the control groups were subjected to the same treatment as those in the experimental group except that the samples to be test were replaced with physiological saline.
# 10 mice were randomly selected, male:female=1:1, were placed in independent cages. Each mouse was injected subcutaneously with the sample solution mentioned above at a dose of 0.1 mL/10 g body weight. After 15 min, a 0.7% acetic acid solution was intraperitoneally injected. The number of writhing reactions in each mouse within 15 minutes was recorded. The group that the mice were injected with physiological saline subcutaneously was the blank group; the group that the mice were injected with the sample to be tested was the experimental group; and the group that the mice were injected with lappaconitine was the positive group. The analgesic activity was represented by a percentage of the reduced number of writhing compared to the blank group (writhing inhibition rate), which were specifically as follows: writhing inhibition rate (analgesic activity)=(average number of writhing times in the blank group-average number of writhing times in the experimental group)/average number of writhing times in the blank group×100%.
smiles,measurement,setting,value
CCN1C[C@]2(OC(=O)c3ccccc3NS(C)(=O)=O)CC[C@H](OC)[C@@]34C2CC([C@@H]13)[C@@]1(O)C[C@H](OC)[C@H]2CC4[C@]1(O)[C@H]2OC (some centres unmarked) [Compound 17],inhibition in vivo at 10 mg/kg,,22.8 ± 7.58%
CCN1C[C@]2(OC(=O)c3ccccc3NC(=O)c3cnc(Cl)cn3)CC[C@H](OC)C3C2C[C@@H]([C@@H]1C)[C@@]1(O)CC(OC)[C@H]2CC3[C@]1(O)[C@H]2OC (some centres unmarked) [Compound 41],inhibition in vivo at 10 mg/kg,,31.5 ± 8.19%
CCN1C[C@]2(OC(=O)c3ccccc3NS(=O)(=O)c3ccccc3F)CC[C@H](OC)[C@@]34C2CC([C@@H]13)[C@@]1(O)C[C@H](OC)[C@H]2CC4[C@]1(O)[C@H]2OC (some centres unmarked) [Compound 6],inhibition in vivo at 10 mg/kg,,60.3 ± 5.94%
CCN1C[C@]2(OC(=O)c3ccccc3NC(=O)NC)CC[C@H](OC)[C@@]34C2CC([C@@H]13)[C@@]1(O)C[C@H](OC)[C@H]2CC4[C@]1(O)[C@H]2OC (some centres unmarked) [Compound 18],inhibition in vivo at 10 mg/kg,,20 ± 6.67%
CCc1ccc(C(=O)Nc2ccccc2C(=O)O[C@@]23CC[C@H](OC)C4C2C[C@@H]([C@H](C)N(CC)C3)[C@@]2(O)CC(OC)[C@H]3CC4[C@]2(O)[C@H]3OC)cc1 (some centres unmarked) [Compound 46],inhibition in vivo at 10 mg/kg,,26.7 ± 7.95%
CCN1C[C@]2(OC(=O)c3ccccc3NS(=O)(=O)c3cccs3)CC[C@H](OC)C34C2CC([C@@H]13)[C@@]1(O)C[C@H](OC)[C@H]2CC4[C@]1(O)[C@H]2OC (some centres unmarked) [Compound 29],inhibition in vivo at 10 mg/kg,,1.03 ± 5.37%
CCN1C[C@]2(OC(=O)c3ccccc3NS(=O)(=O)c3ccc(Cl)cc3)CC[C@H](OC)C34C2CC([C@@H]13)[C@@]1(O)C[C@H](OC)[C@H]2CC4[C@]1(O)[C@H]2OC (some centres unmarked) [Compound 25],inhibition in vivo at 10 mg/kg,,11.7 ± 7.78%
CCN1C[C@]2(OC(=O)c3ccccc3NS(=O)(=O)Cc3ccc([N+](=O)[O-])cc3)CC[C@H](OC)[C@@]34C2CC([C@@H]13)[C@@]1(O)C[C@H](OC)[C@H]2CC4[C@]1(O)[C@H]2OC (some centres unmarked) [Compound 11],inhibition in vivo at 10 mg/kg,,42.4 ± 5.98%
CCN1C[C@]2(OC(=O)c3ccccc3NC(=O)CC(C)(C)C)CC[C@H](OC)C3C2C[C@@H]([C@@H]1C)[C@@]1(O)CC(OC)[C@H]2CC3[C@]1(O)[C@H]2OC (some centres unmarked) [Compound 47],inhibition in vivo at 10 mg/kg,,24.9 ± 9.7%
CCN1C[C@]2(OC(=O)c3ccccc3NS(=O)(=O)c3cccc(OC)c3)CC[C@H](OC)[C@@]34C2CC([C@@H]13)[C@@]1(O)C[C@H](OC)[C@H]2CC4[C@]1(O)[C@H]2OC (some centres unmarked) [Compound 13],inhibition in vivo at 3.5 mg/kg,Dosing concentration 3.5 mg/kg,37.1 ± 15.7%
CCCOc1ccc(C(=O)Nc2ccccc2C(=O)O[C@@]23CC[C@H](OC)C45C2CC([C@H]4N(CC)C3)[C@@]2(O)C[C@H](OC)[C@H]3CC5[C@]2(O)[C@H]3OC)cc1 (some centres unmarked) [Compound 35],inhibition in vivo at 10 mg/kg,,48.4 ± 6.08%
CCN1C[C@]2(OC(=O)c3ccccc3NS(=O)(=O)c3ccc(-c4ccccc4)cc3)CC[C@H](OC)C34C2CC([C@@H]13)[C@@]1(O)C[C@H](OC)[C@H]2CC4[C@]1(O)[C@H]2OC (some centres unmarked) [Compound 22],inhibition in vivo at 10 mg/kg,,16.1 ± 10.6%
CCN1C[C@]2(OC(=O)c3ccccc3NC(=O)C3CCOCC3)CC[C@H](OC)C3C2C[C@@H]([C@@H]1C)[C@@]1(O)CC(OC)[C@H]2CC3[C@]1(O)[C@H]2OC (some centres unmarked) [Compound 50],inhibition in vivo at 10 mg/kg,,16.4 ± 8.07%
C=CCOC(=O)Nc1ccccc1C(=O)O[C@@]12CC[C@H](OC)C34C1CC([C@H]3N(CC)C2)[C@@]1(O)C[C@H](OC)[C@H]2CC4[C@]1(O)[C@H]2OC (some centres unmarked) [Compound 24],inhibition in vivo at 10 mg/kg,,13.3 ± 9%
CCN1C[C@]2(OC(=O)c3ccccc3NS(=O)(=O)CC)CC[C@H](OC)C34C2CC([C@@H]13)[C@@]1(O)C[C@H](OC)[C@H]2CC4[C@]1(O)[C@H]2OC (some centres unmarked) [Compound 27],inhibition in vivo at 10 mg/kg,,4.02 ± 9.5%
CCN1C[C@]2(OC(=O)c3ccccc3NC(=O)C3CCCCC3)CC[C@H](OC)C3C2C[C@@H]([C@@H]1C)[C@@]1(O)CC(OC)[C@H]2CC3[C@]1(O)[C@H]2OC (some centres unmarked) [Compound 37],inhibition in vivo at 10 mg/kg,,34.5 ± 4.68%
CCN1C[C@]2(OC(=O)c3ccccc3NC(=O)OC(C)C)CC[C@H](OC)[C@@]34C2CC([C@@H]13)[C@@]1(O)C[C@H](OC)[C@H]2CC4[C@]1(O)[C@H]2OC (some centres unmarked) [Compound 14],inhibition in vivo at 10 mg/kg,,28.4 ± 4.98%
